# In patent publication US7420056B2, “Substituted bicyclic imidazo-3-ylamine compounds” (Gruenenthal GmbH, priority 2004, dated 2008):
# Target: mGluR5 receptor (Sus scrofa, UniProt I3LUI7)
# Assay: Affinity for the mGluR5 receptor: inhibition of 3[H]-MPEP binding in pig brain homogenate
# Conditions: 10 μM compound, 5 nM 3[H]-MPEP, read-out: mGluR5 receptor inhibition of ^3[H]-MPEP binding [10 μM] in % at a concentration of the example compounds of 10 μM
# Summary of the method: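 Pig brain membranes (450 μg protein; hemispheres without medulla, cerebellum and pons) in 30 mM Hepes pH 8.0 were incubated 60 min at room temperature with 5 nM [3H]-MPEP and compound at 10 μM. Bound radioactivity was filtered and counted. Nonspecific binding was defined with 10 μM MPEP.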
# Chain of mGluR5 receptor (I3LUI7 19-1212): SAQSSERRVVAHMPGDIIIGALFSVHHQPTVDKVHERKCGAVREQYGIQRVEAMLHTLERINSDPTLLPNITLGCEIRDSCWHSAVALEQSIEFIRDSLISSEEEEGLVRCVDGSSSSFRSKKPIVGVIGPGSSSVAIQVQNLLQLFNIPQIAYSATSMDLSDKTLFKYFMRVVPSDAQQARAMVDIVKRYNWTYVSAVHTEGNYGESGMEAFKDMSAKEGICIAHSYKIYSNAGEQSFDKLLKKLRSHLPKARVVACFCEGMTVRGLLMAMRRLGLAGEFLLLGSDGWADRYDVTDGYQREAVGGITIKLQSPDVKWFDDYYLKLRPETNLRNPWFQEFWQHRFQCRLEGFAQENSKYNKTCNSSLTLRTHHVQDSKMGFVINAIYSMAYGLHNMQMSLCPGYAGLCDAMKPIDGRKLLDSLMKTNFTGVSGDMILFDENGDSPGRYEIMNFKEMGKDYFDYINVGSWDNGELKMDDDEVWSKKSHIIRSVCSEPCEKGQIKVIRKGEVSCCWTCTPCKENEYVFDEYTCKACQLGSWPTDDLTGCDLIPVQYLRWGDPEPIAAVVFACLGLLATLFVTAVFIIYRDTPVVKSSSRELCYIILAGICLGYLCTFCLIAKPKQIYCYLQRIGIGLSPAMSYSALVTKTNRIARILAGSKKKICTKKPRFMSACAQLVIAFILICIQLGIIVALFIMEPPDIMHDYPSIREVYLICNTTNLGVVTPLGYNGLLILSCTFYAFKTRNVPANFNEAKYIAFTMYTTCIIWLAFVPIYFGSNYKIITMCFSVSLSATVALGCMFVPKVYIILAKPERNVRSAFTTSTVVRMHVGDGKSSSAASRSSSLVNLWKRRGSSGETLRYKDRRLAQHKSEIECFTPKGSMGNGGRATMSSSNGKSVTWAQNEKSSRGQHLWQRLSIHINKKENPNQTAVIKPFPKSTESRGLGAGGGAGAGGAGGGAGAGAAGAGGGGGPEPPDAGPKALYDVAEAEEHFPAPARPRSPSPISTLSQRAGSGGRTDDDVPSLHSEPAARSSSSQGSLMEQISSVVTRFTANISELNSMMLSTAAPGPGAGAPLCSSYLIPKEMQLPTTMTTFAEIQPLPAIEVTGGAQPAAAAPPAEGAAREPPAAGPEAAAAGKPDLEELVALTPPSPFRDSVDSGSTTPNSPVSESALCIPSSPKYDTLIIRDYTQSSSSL
row,Structure (SMILES),inhibition at 10 µM
1,"Cc1cccn2c(NCc3ccc(Cl)cc3)c(-c3ccc(C#Cc4ccccc4)s3)nc12 [Example 198, N-(4-chlorobenzyl)-8-methyl-2-(5-(phenylethynyl)thiophen-2-yl)imidazo[1,2-a]pyridin-3-amine]",67%
2,"COc1cccc(CCNc2c(-c3cc(C#Cc4ccccc4)cs3)nc3cccc(C)n23)c1 [Example 199, N-(3-methoxyphenethyl)-5-methyl-2-(4-(phenylethynyl)thiophen-2-yl)imidazo[1,2-a]pyridin-3-amine]",57%
3,"CCCCC(C)(C)Nc1c(-c2cc(C#Cc3ccccc3)cs2)nc2cnccn12 [Example 200, N-(2-methylhexan-2-yl)-2-(4-(phenylethynyl)thiophen-2-yl)imidazo[1,2-a]pyrazin-3-amine]",62%
4,"C(#Cc1csc(-c2nc3cnccn3c2NCCc2ccccc2)c1)c1ccccc1 [Example 201, N-phenethyl-2-(4-(phenylethynyl)thiophen-2-yl)imidazo[1,2-a]pyrazin-3-amine]",55%
5,"COc1cccc(CCNc2c(-c3cc(C#Cc4ccccc4)cs3)nc3cnccn23)c1 [Example 202, N-(3-methoxyphenethyl)-2-(4-(phenylethynyl)thiophen-2-yl)imidazo[1,2-a]pyrazin-3-amine]",70%
6,"C(#Cc1csc(-c2nc3cnccn3c2NCCc2cccs2)c1)c1ccccc1 [Example 203, 2-(4-(phenylethynyl)thiophen-2-yl)-N-(2-(thiophen-2-yl)ethyl)imidazo[1,2-a]pyrazin-3-amine]",60%
7,"Clc1ccc(CNc2c(-c3ccc(C#Cc4ccccc4)s3)nc3ccccn23)cc1 [Example 204, N-(4-chlorobenzyl)-2-(5-(phenylethynyl)thiophen-2-yl)imidazo[1,2-a]pyridin-3-amine]",30%
8,"CCCC(C)(C)Nc1c(-c2ccc(C#Cc3ccccc3)s2)nc2cnccn12 [Example 205, N-(2-methylpentan-2-yl)-2-(5-(phenylethynyl)thiophen-2-yl)imidazo[1,2-a]pyrazin-3-amine]",92%
9,"C(#Cc1csc(-c2nc3cnccn3c2NCC2CCCCC2)c1)c1ccccc1 [Example 206, N-(cyclohexylmethyl)-2-(4-(phenylethynyl)thiophen-2-yl)imidazo[1,2-a]pyrazin-3-amine]",63%
10,"COc1ccccc1CNc1c(-c2ccc(C#Cc3ccccc3)o2)nc2cnccn12 [Example 207, N-(2-methoxybenzyl)-2-(5-(phenylethynyl)furan-2-yl)imidazo[1,2-a]pyrazin-3-amine]",35%
11,"C(#Cc1csc(-c2nc3ccccn3c2NCC2CCCCC2)c1)c1ccccc1 [Example 208, N-(cyclohexylmethyl)-2-(4-(phenylethynyl)thiophen-2-yl)imidazo[1,2-a]pyridin-3-amine]",57%
12,"CCCC(C)(C)Nc1c(-c2cc(C#Cc3ccccc3)cs2)nc2ccccn12 [Example 209, N-(2-methylpentan-2-yl)-2-(4-(phenylethynyl)thiophen-2-yl)imidazo[1,2-a]pyridin-3-amine]",55%
13,"Cc1cc(Br)c2nc(-c3cccc(C#Cc4cccc(C)n4)c3)c(NC(C)(C)CC(C)(C)C)n2c1 [Example 210, 8-bromo-6-methyl-2-(3-((6-methylpyridin-2-yl)ethynyl)phenyl)-N-(2,4,4-trimethylpentan-2-yl)imidazo[1,2-a]pyridin-3-amine]",68%
14,"Cc1cc(Br)c2nc(-c3cccc(C#Cc4ccccn4)c3)c(NC3CCCC3)n2c1 [Example 211, 8-bromo-N-cyclopentyl-6-methyl-2-(3-(pyridin-2-ylethynyl)phenyl)imidazo[1,2-a]pyridin-3-amine]",82%
15,"C(#Cc1csc(-c2nc3cnccn3c2NC2CCCC2)c1)c1ccccc1 [Example 212, N-cyclopentyl-2-(4-(phenylethynyl)thiophen-2-yl)imidazo[1,2-a]pyrazin-3-amine]",90%
16,"CC(Nc1c(-c2cc(C#Cc3ccccc3)cs2)nc2cnccn12)c1ccccc1 (stereo not shown) [Example 213, N-(1-phenylethyl)-2-(4-(phenylethynyl)thiophen-2-yl)imidazo[1,2-a]pyrazin-3-amine]",84%
17,"CCCC(C)(C)Nc1c(-c2cc(C#Cc3ccccc3)cs2)nc2cnccn12 [Example 214, N-(2-methylpentan-2-yl)-2-(4-(phenylethynyl)thiophen-2-yl)imidazo[1,2-a]pyrazin-3-amine]",77%
18,"Cc1cc(Br)c2nc(-c3ccc(C#Cc4ccccn4)o3)c(NC3CCCCC3)n2c1 [Example 215, 8-bromo-N-cyclohexyl-6-methyl-2-(5-(pyridin-2-ylethynyl)furan-2-yl)imidazo[1,2-a]pyridin-3-amine]",51%
19,"C(#Cc1ccc(-c2nc3cnccn3c2NC2CCCC2)o1)c1ccccc1 [Example 216, N-cyclopentyl-2-(5-(phenylethynyl)furan-2-yl)imidazo[1,2-a]pyrazin-3-amine]",49%
20,"COc1cccc(CCNc2c(-c3cc(C#Cc4ccccc4)cs3)nc3nc(C)ccn23)c1 [Example 217, N-(3-methoxyphenethyl)-7-methyl-2-(4-(phenylethynyl)thiophen-2-yl)imidazo[1,2-a]pyrimidin-3-amine]",62%

# The next lines start with the values.
row,inhibition at 10 µM,Structure (SMILES)
1,38%,"CC(C)(C)CC(C)(C)Nc1c(-c2ccc(C#Cc3ccccc3)s2)nc2c(OCc3ccccc3)cccn12 [Example 218, 8-(benzyloxy)-2-(5-(phenylethynyl)thiophen-2-yl)-N-(2,4,4-trimethylpentan-2-yl)imidazo[1,2-a]pyridin-3-amine]"
2,33%,"C(#Cc1csc(-c2nc3c(OCc4ccccc4)cccn3c2NC2CCCC2)c1)c1ccccc1 [Example 219, 8-(benzyloxy)-N-cyclopentyl-2-(4-(phenylethynyl)thiophen-2-yl)imidazo[1,2-a]pyridin-3-amine]"
3,31%,"CCCC(C)(C)Nc1c(-c2cc(C#Cc3ccccc3)cs2)nc2c(OCc3ccccc3)cccn12 [Example 220, 8-(benzyloxy)-N-(2-methylpentan-2-yl)-2-(4-(phenylethynyl)thiophen-2-yl)imidazo[1,2-a]pyridin-3-amine]"
4,40%,"Fc1ccc(CNc2c(-c3ccc(C#Cc4ccccc4)o3)nc3ccc(Cl)cn23)cc1 [Example 221, 6-chloro-N-(4-fluorobenzyl)-2-(5-(phenylethynyl)furan-2-yl)imidazo[1,2-a]pyridin-3-amine]"
5,33%,"CCCCNc1c(-c2cc(C#Cc3ccccc3)cs2)nc2ccc(Br)c(C)n12 [Example 222, 6-bromo-N-butyl-5-methyl-2-(4-(phenylethynyl)thiophen-2-yl)imidazo[1,2-a]pyridin-3-amine]"
6,80%,"Cc1cccn2c(Nc3ccco3)c(-c3ccc(C#Cc4ccccc4)o3)nc12 [Example 223, N-(furan-2-yl)-8-methyl-2-(5-(phenylethynyl)furan-2-yl)imidazo[1,2-a]pyridin-3-amine]"
7,69%,"C(#Cc1ccc(-c2nc3ccccn3c2Nc2ccco2)o1)c1ccccc1 [Example 224, N-(furan-2-yl)-2-(5-(phenylethynyl)furan-2-yl)imidazo[1,2-a]pyridin-3-amine]"
8,43%,"CCCc1ccn2c(Nc3ccco3)c(-c3ccc(C#Cc4ccccc4)o3)nc2c1 [Example 225, N-(furan-2-yl)-2-(5-(phenylethynyl)furan-2-yl)-7-propylimidazo[1,2-a]pyridin-3-amine]"
9,41%,"Cc1cc(C)n2c(Nc3cccc(C(F)(F)F)c3)c(-c3cc(C#Cc4ccccc4)cs3)nc2n1 [Example 226, 5,7-dimethyl-2-(4-(phenylethynyl)thiophen-2-yl)-N-(3-(trifluoromethyl)phenyl)imidazo[1,2-a]pyrimidin-3-amine]"
10,61%,"Cc1cc(Br)cn2c(NCCc3ccc(Cl)cc3)c(-c3cc(C#Cc4ccccc4)cs3)nc12 [Example 227, 6-bromo-N-(4-chlorophenethyl)-8-methyl-2-(4-(phenylethynyl)thiophen-2-yl)imidazo[1,2-a]pyridin-3-amine]"
11,43%,"Clc1ccc(CCNc2c(-c3cc(C#Cc4ccccc4)cs3)nc3cc(-c4ccccc4)ccn23)cc1 [Example 228, N-(4-chlorophenethyl)-7-phenyl-2-(4-(phenylethynyl)thiophen-2-yl)imidazo[1,2-a]pyridin-3-amine]"
12,30%,"C(#Cc1csc(-c2nc3cc(-c4ccccc4)ccn3c2NCCc2ccccc2)c1)c1ccccc1 [Example 229, N-phenethyl-7-phenyl-2-(4-(phenylethynyl)thiophen-2-yl)imidazo[1,2-a]pyridin-3-amine]"
13,60%,"Cc1cc(C)n2c(NCc3ccc(Cl)cc3)c(-c3cc(C#Cc4ccccc4)cs3)nc2c1 [Example 230, N-(4-chlorobenzyl)-5,7-dimethyl-2-(4-(phenylethynyl)thiophen-2-yl)imidazo[1,2-a]pyridin-3-amine]"
14,62%,"Cc1c(Br)ccc2nc(-c3cc(C#Cc4ccccc4)cs3)c(NCc3ccc(Cl)cc3)n12 [Example 231, 6-bromo-N-(4-chlorobenzyl)-5-methyl-2-(4-(phenylethynyl)thiophen-2-yl)imidazo[1,2-a]pyridin-3-amine]"
15,75%,"Cc1cc(Br)c2nc(-c3cc(C#Cc4ccccc4)cs3)c(NCc3ccc(Cl)cc3)n2c1 [Example 232, 8-bromo-N-(4-chlorobenzyl)-6-methyl-2-(4-(phenylethynyl)thiophen-2-yl)imidazo[1,2-a]pyridin-3-amine]"
16,75%,"CCCc1cccc2nc(-c3cc(C#Cc4ccccc4)cs3)c(NCCc3cccc(OC)c3)n12 [Example 233, N-(3-methoxyphenethyl)-2-(4-(phenylethynyl)thiophen-2-yl)-5-propylimidazo[1,2-a]pyridin-3-amine]"
17,64%,"Cc1cc(Br)cn2c(NCCc3cccs3)c(-c3cc(C#Cc4ccccc4)cs3)nc12 [Example 234, 6-bromo-8-methyl-2-(4-(phenylethynyl)thiophen-2-yl)-N-(2-(thiophen-2-yl)ethyl)imidazo[1,2-a]pyridin-3-amine]"
